The results in this text go back to publication PMC10889091, “Isolation, Characterization, Genome Annotation, and Evaluation of Tyrosinase Inhibitory Activity in Secondary Metabolites of Paenibacillus sp. JNUCC32: A Comprehensive Analysis through Molecular Docking and Molecular Dynamics Simulation” (International Journal of Molecular Sciences, 2024).

This assay addresses T1, mushroom tyrosinase (Agaricus bisporus, UniProt C7FF04).
T1 construct: gene PPO3
The assay is described as follows: mushroom tyrosinase (Sigma T3824) assay with L-tyrosine, absorbance at […] nm. It is filed as biochemical.

T1 sequence (C7FF04 2-392): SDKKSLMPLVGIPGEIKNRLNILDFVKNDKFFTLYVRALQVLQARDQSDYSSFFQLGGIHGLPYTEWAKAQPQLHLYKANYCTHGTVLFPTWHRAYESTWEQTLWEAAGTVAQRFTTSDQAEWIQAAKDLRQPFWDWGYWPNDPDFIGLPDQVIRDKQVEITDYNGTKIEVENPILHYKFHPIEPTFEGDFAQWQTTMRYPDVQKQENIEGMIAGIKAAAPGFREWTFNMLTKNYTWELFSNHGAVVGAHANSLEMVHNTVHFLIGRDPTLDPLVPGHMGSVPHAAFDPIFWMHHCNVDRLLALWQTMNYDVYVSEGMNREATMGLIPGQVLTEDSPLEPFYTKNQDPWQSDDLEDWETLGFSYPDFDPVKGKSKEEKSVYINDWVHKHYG

In the case of `OCCc1c[nH]c2ccccc12` [compound 1, tryptophol], the IC50 is 999 µM.

In general, IC50 refers to the concentration that gives 50% inhibition. A low value points to higher potency.
